This is an account of results in patent US20130034522A1, “THERAPIES FOR TREATING HEPATITIS C VIRUS INFECTION” (priority 2010, published 2013).

What is called IC50 is the midpoint of a concentration-inhibition curve. A high value points to lower potency. The IC90 is the concentration at which the effect reaches the 90% level. A lower IC90 goes with greater potency.

In brackets after ≈: the same amount, converted by molar mass.

In series [1] the test system is hepatitis C virus (HCV) replicon. The experiment in a line: HCV replicon cell assay. To be noted: HCV RNA level, 48-hour incubation. Format: cell-based. Here is the method: Cells containing hepatitis C virus (HCV) replicon were maintained in DMEM containing 10% fetal bovine serum (FBS), 0.25 mg per ml of G418, with appropriate supplements (media A).
On day 1, replicon cell monolayer was treated with a trypsin:EDTA mixture, removed, and then media A was diluted into a final concentration of 100,000 cells per ml with 10,000 cells in 100 μl were plated into each well of a 96-well tissue culture plate, and cultured overnight in a tissue culture incubator at 37° C.
On day 2, compounds (in 100% DMSO) were serially diluted into DMEM containing 2% FBS, 0.5% DMSO, with appropriate supplements (media B). The final concentration of DMSO was maintained at 0.5% throughout the dilution series.
Media on the replicon cell monolayer was removed, and then media B containing various concentrations of compounds was added. […]
A Taqman real-time RT-PCR quantification assay was set up with two sets of specific primers and probe. […] Total RNA extractants from treated HCV replicon cells was added to the PCR reactions for quantification of both HCV and BVDV RNA in the same PCR well. […] The level of HCV RNA in each well was calculated according to a standard curve run in the same PCR plate. The percentage of inhibition or decrease of HCV RNA level due to compound treatment was calculated using the DMSO or no compound control as 0% of inhibition. […]
In general terms: A replicon is a self-replicating genome or part of one, used to study replication in cells.

The conditions of series [2]: male, human, in vivo.
Method: 25 healthy male volunteers were enrolled.
A dose escalation scheme was used that combined dose doubling and modified Fibonacci to be aggressive in the lower dose range and conservative in the higher dose range.
A pharmacokinetics analysis was performed using the statistical moment approach.
Series [3] is described as follows: PK of prodrugs of Compound 1 in rats. The series is classed as in vivo. The note with it: oral gavage 3 mg/kg, plasma, FIG. 9. The method, then: The prodrugs whose PK parameters are to be determined can be formulated as a solution in 0.5% MC/0.5% Tween 80/99% water and administered orally by gavage to rats at a dose of 3 mg/kg. Rats are weighed the day before the study. Rat plasma is sampled predose and at 15, 30 min, 1, 2, 3, 4, 6, 8, 12 and 24 hrs post dose using Instech automatic blood sampling equipment. Blood is collected in tubes containing K2-EDTA and 110 uL plasma are extracted for analysis. Rats are fed ad lib and standard IACUC and SOP protocols are followed. Plasma samples and dose samples are analyzed using LC/MS/MS for both the prodrug compound and the active metabolite. PK parameters for both analytes for each subject are calculated using the measured dose of prodrug.

A further series concerns HCV. The note with it: monotherapy, patients; cited from earlier work.

In the case of `CCC[C@H](NC(=O)[C@@H]1[C@H]2CCC[C@H]2CN1C(=O)[C@@H](NC(=O)[C@@H](NC(=O)c1cnccn1)C1CCCCC1)C(C)(C)C)C(=O)C(=O)NC1CC1` [VX-950], in series [1], the IC50 came out at 0.24 µg/mL (≈ 0.353 µM) and the IC90 was 0.476 µg/mL (≈ 0.7 µM). In addition, the “eliminated unchanged in the urine” value in series [2] is “Less than 2%”.

`C[C@@H](N)C(=O)O[C@H]1CC[C@H](N(c2cc(C#CC(C)(C)C)sc2C(=O)O)C(=O)[C@H]2CC[C@H](C)CC2)CC1` [Compound H]: the “in vivo conversion of prodrug” value in series [3] is “converted into the —OH active metabolite”.

Turning to interferon alfa, in the series with HCV, the “long term remission, fraction of cases” value is given as around 25%.
